Measured values as given in patent US6558923B2 (priority 1998, dated 2003).

Columns and labels:
Format in all cases: cell-based, HIV-1
[1] = test system: NL4-3 reference virus; experiment: microbe, parasite or virus in culture; settings: Human immunodeficiency virus 1, NL43, read-out: Geometric-mean IC90
[2] = test system: recombinant virus carrying protease sequences from patient plasma
[3] = test system: recombinant virus carrying gag-protease sequences from patient plasma

Compound	IC90 [1] [nM]	Effect of increasing protease inhibitor concentrations on infectivity of recombinant particles [2]	Reduction in sensitivity [3] [fold]	Sensitivity [3]	Sensitivity correlated with genotype [3]	Change in IC90 [2]	IC90 of pre-therapy recombinant viruses compared with the other protease inhibitors [2]	Susceptibility of pre-therapy virus from patient B versus pre-therapy virus from patient A [2]
CC(C)CN(C[C@@H](O)[C@H](Cc1ccccc1)NC(=O)O[C@H]1CCOC1)S(=O)(=O)c1ccc(N)cc1 [Amprenavir, amprenavir]	54							
CC(C)(C)NC(=O)[C@@H]1CN(Cc2cccnc2)CCN1C[C@@H](O)C[C@@H](Cc1ccccc1)C(=O)N[C@H]1c2ccccc2C[C@H]1O [Indinavir]	16	clear and gradual inhibition of single-cycle particle infectivity	10	further reduced	reduced sensitivity			
Cc1c(O)cccc1C(=O)N[C@@H](CSc1ccccc1)[C@H](O)CN1C[C@H]2CCCC[C@H]2C[C@H]1C(=O)NC(C)(C)C [Nelfinavir, nelfinavir]	3.5				reduced sensitivity			
CC(C)(C)NC(=O)[C@@H]1C[C@@H]2CCCC[C@@H]2CN1C[C@@H](O)[C@H](Cc1ccccc1)NC(=O)[C@H](CC(N)=O)NC(=O)c1ccc2ccccc2n1 [Saquinavir]	28	clear and gradual inhibition of single-cycle particle infectivity	4	further reduced	resistance	prominent increase	always significantly lower	clearly less susceptible
CC(C)c1nc(CN(C)C(=O)N[C@H](C(=O)N[C@@H](Cc2ccccc2)C[C@H](O)[C@H](Cc2ccccc2)NC(=O)OCc2cncs2)C(C)C)cs1 [Ritonavir]	23				reduced sensitivity			
